Results: US8063055B2, “Substituted pyridone compounds and methods of use” (Amgen Inc., priority 2007, dated 2011)
pIC50: −log10 of the molar value. Read-outs that look alike come from different tables or passages of the source.

Assays:
c-kit kinase enzyme = target: T1, c-kit kinase enzyme (Homo sapiens, UniProt P10721); experiment: C-kit Homogeneous Time Resolved Fluorescent (HTRF) kinase assay; format: biochemical; settings: c-kit catalytic domain, biotinylated Her-2 peptide substrate, ATP
T1 construct: (catalytic domain, N-terminal GST tagged, unphosphorylated)
T1 sequence (P10721 589-937 limits assumed): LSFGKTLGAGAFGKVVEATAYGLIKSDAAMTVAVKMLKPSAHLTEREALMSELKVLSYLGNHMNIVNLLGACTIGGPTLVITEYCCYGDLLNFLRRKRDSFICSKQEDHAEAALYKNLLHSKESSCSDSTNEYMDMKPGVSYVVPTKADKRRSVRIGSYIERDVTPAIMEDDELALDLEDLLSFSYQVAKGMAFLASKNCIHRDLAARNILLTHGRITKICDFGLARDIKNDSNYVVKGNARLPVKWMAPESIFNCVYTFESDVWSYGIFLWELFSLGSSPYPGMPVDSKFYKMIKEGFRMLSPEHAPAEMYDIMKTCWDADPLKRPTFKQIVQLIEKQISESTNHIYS

[1] = test system: SCF-stimulated UT-7 cells; settings: Homo sapiens
Excerpt: SCF and GM-CSF Stimulated UT7 Proliferation/Survival Assay:
The purpose of this assay is to test the general anti-proliferative/cytotoxic effect of small molecule compounds on SCF or GM-CSF-stimulated UT-7 cells. Preventing SCF stimulated proliferation/survival is consistent with an on-mechanism effect whereas inhibition of GM-CSF driven proliferation/survival is indicative of off-target effects. UT-7 is a factor dependent human megakaryoblastic leukemia cell line that can be grown in either IL-3, GM-CSF, EPO or SCF (these cells have been confirmed to carry wild type c-kit receptor). Cells are maintained in growth media (IMDM, 10% HI-FBS, 1×PGS, 1 ng/mL GM-CSF). […] Small molecule compounds are first diluted in 100% DMSO, then diluted 1:4 in RT assay media. […] The treated cells are incubated in a 37° C. humidified incubator with 5% CO2 for 3 days. The amount of ATP is then measured as a surrogate marker for cell viability. […] The amount of SCF or GM-CSF stimulated viable cells in the presence of compound compared with in the presence of vehicle alone (HI control) is calculated using the formula: % control (POC)=(cpd−average LO)/(average HI−average LO)*100. Data (consisting of POC and inhibitor concentration in μM) is fitted to a 4-parameter equation (y=A+((B−A)/(1+((x/C)^D))), where A is the minimum y (POC) value, B is the maximum y (POC), C is the x (cpd concentration) at the point of inflection and D is the slope factor) using a Levenburg-Marquardt non-linear regression algorithm.

[2] = UT7, 72 h, read-out: UT7 Proliferation cell assay data
[3] = read-out: HTRF Fret enzyme assay data

Row | SMILES | pIC50 (c-kit kinase enzyme; HTRF Fret enzyme assay data) | pIC50 [1, 2] | pIC50 (c-kit kinase enzyme; [3]) | pIC50 ([1]; UT7, read-out: average IC50 value in the SCF stimulated UT7 proliferation and survival assay)
1 | Cc1ccn(-c2cccc(OC(F)(F)F)c2)c(=O)c1-c1ccc2nc(N)ncc2c1 [Example 14, 3-(2-amino-6-quinazolinyl)-4-methyl-1-(3-((trifluoromethyl)oxy)phenyl)-2(1H)-pyridinone] | 8.39 | 7.79 |  | 
2 | Cc1ccc(-n2ccc(C)c(-c3ccc4nc(N)ncc4c3)c2=O)cc1Cl [Example 41, 3-(2-aminoquinazolin-6-yl)-1-(3-chloro-4-methylphenyl)-4-methylpyridin-2(1H)-one] | 8.09 | 7.92 |  | 
3 | Cc1ccn(-c2ccc(-n3cccn3)cc2)c(=O)c1-c1ccc2nc(N)ncc2c1 [Example 38, 1-(4-(1H-pyrazol-1-yl)phenyl)-3-(2-aminoquinazolin-6-yl)-4-methylpyridin-2(1H)-one] |  | 7.74 | 8.00 | 
4 | Cc1ccn(CCC2CC2)c(=O)c1-c1ccc2nc(N)ncc2c1 [Example 59, 3-(2-aminoquinazolin-6-yl)-1-(2-cyclopropylethyl)-4-methylpyridin-2(1H)-one] | 7.10 | 7.55 |  | 
5 | Cc1ccn(-c2ccc3c(c2)CCO3)c(=O)c1-c1ccc2nc(N)ncc2c1 [Example 17, 3-(2-amino-6-quinazolinyl)-1-(2,3-dihydro-1-benzofuran-5-yl)-4-methyl-2(1H)-pyridinone] | 8.12 | 7.82 |  | 
6 | Cc1ccn(CCC2CCCC2)c(=O)c1-c1ccc2nc(N)ncc2c1 [Example 52, 3-(2-aminoquinazolin-6-yl)-1-(2-cyclopentylethyl)-4-methylpyridin-2(1H)-one] | 9.09 | 7.62 |  | ≥ 6.00
7 | Cc1ccn(-c2ccc(C(F)(F)F)cc2)c(=O)c1-c1ccc2nc(N)ncc2c1 [Example 30, 3-(2-aminoquinazolin-6-yl)-4-methyl-1-(4-(trifluoromethyl)phenyl)pyridin-2(1H)-one] | 8.10 | 7.74 |  | 
8 | Cc1ccn(-c2ccc(F)cc2)c(=O)c1-c1ccc2nc(N)ncc2c1 [Example 33, 3-(2-aminoquinazolin-6-yl)-1-(4-fluorophenyl)-4-methylpyridin-2(1H)-one] | 7.20 | 6.97 |  | 
9 | COc1cccc(-n2ccc(C)c(-c3ccc4nc(N)ncc4c3)c2=O)c1 [Example 22, 3-(2-amino-6-quinazolinyl)-4-methyl-1-(3-(methyloxy)phenyl)-2(1H)-pyridinone] |  | 7.56 | 7.19 | 
10 | Cc1ccn(-c2ccc3[nH]ccc3c2)c(=O)c1-c1ccc2nc(N)ncc2c1 [Example 18, 3-(2-amino-6-quinazolinyl)-4-methyl-1-(1H-indol-5-yl)-2(1H)-pyridinone] | 8.06 | 7.54 |  | 
11 | CCOC(=O)c1ccc(-n2ccc(C)c(-c3ccc4nc(N)ncc4c3)c2=O)cc1 [Example 29, ethyl 4-(3-(2-aminoquinazolin-6-yl)-4-methyl-2-oxopyridin-1(2H)-yl)benzoate] |  | 7.18 | 7.77 | 
12 | Cc1cc(-n2ccc(C)c(-c3ccc4nc(N)ncc4c3)c2=O)ccc1F [Example 42, 3-(2-aminoquinazolin-6-yl)-1-(4-fluoro-3-methylphenyl)-4-methylpyridin-2(1H)-one] |  | 7.74 | 7.85 | 
13 | Cc1ccn(-c2ccc(F)c(C(F)(F)F)c2)c(=O)c1-c1ccc2nc(N)ncc2c1 [Example 43, 3-(2-aminoquinazolin-6-yl)-1-(4-fluoro-3-(trifluoromethyl)phenyl)-4-methylpyridin-2(1H)-one] | 7.67 | 7.39 |  | 
14 | CCC(C)CCn1ccc(C)c(-c2ccc3nc(N)ncc3c2)c1=O (centres unmarked) [Example 58, 3-(2-aminoquinazolin-6-yl)-4-methyl-1-(3-methylpentyl)pyridin-2(1H)-one] | 8.60 | 8.05 |  | 
15 | Cc1ccn(CCC(C)(C)C)c(=O)c1-c1ccc2nc(N)ncc2c1 [Example 57, 3-(2-aminoquinazolin-6-yl)-1-(3,3-dimethylbutyl)-4-methylpyridin-2(1H)-one] | 7.79 | 7.37 |  | 
16 | Cc1ccc(-n2ccc(C)c(-c3ccc4nc(N)ncc4c3)c2=O)cc1F [Example 6, 3-(2-aminoquinazolin-6-yl)-1-(3-fluoro-4-methylphenyl)-4-methylpyridin-2(1H)-one] |  | 7.92 | 7.40 | 
17 | Cc1ccn(-c2ccc(C(C)(C)C)cc2)c(=O)c1-c1ccc2nc(N)ncc2c1 [Example 12, 3-(2-amino-6-quinazolinyl)-1-(4-(1,1-dimethylethyl)phenyl)-4-methyl-2(1H)-pyridinone] | 8.69 | 7.78 |  | 
